PMC2920546, “Preclinical Pharmacology of BA-TPQ, a Novel Synthetic Iminoquinone Anticancer Agent” (Marine Drugs, 2010)

What was measured:
[1] = tested on: prostate and breast cancer cell lines; design: method as in PMID 19274441, PMID 19936915; details: cell lines with varying p53 status; cited from earlier work
[2] = Stability of BA-TPQ in mouse plasma; type: in vitro ADME; details: for Amount Remaining: mouse plasma
Method: The stability of BA-TPQ was evaluated at two concentrations (0.5 and 5.0 μM). The compound was incubated under the following conditions: 37 °C for 0, 1, 2, 4, and 8 h; 4 °C for 0, 1, 4, 8, and 24 h; and −80 °C for 0, 1, 2, and 4 weeks. At the designated time points, the samples were extracted and analyzed using the established HPLC analytical method. The stability of the iminoquinone was assessed by comparing the initial concentration (time 0) with the final concentration following incubation of the compound at the noted temperatures, and expressing this difference as a percentage of the initial concentration.

[3] = Pharmacokinetics and tissue distribution in CD-1 mice; type: in vivo
Method: Female ICR/CD-1 (18–20 g) mice were purchased from Harlan Laboratories (Indianapolis, IN), and female nude mice (nu/nu; 4–6 weeks) were purchased from Frederick Cancer Research and Development Center (Frederick, MD). All animal use and care procedures were approved by the Institutional Animal Care and Use Committee (IACUC) of the University of Alabama at Birmingham. All animals were fed with commercial diet and water ad libitum and were on an alternating 12 h light/dark cycle.
CD-1 and nude mice were randomly divided into groups of three, and were dosed either intravenously (5 mg/kg) or intraperitoneally (10 mg/kg) with BA-TPQ in PEG 400:ethanol:0.9% saline (57.1%:14.3%:28.6%). Before dosing, and at 5, 15, 30, 60 min, and 2, 4, 8, and 24 h after dosing, groups of animals (three/time point) were anesthetized, and blood was collected from the retro-orbital sinus into heparinized tubes. Plasma was obtained by centrifuging the blood samples at 14,000 rpm for 15 min. BA-TPQ was then extracted from plasma and stored at −80 °C. The brain, heart, kidneys, liver, lungs, and spleen were also collected at the same time points during necropsy, blotted on Whatman No. 1 filter paper, trimmed of extraneous fat and connective tissue, weighed, and homogenized in phosphate-buffered saline. The resulting homogenates were stored at −80 °C until further processing and analysis. Urine and feces were collected for 24 hr from mice housed in metabolic cages. After collection, the cages were also washed twice with 200 μL PBS, and the washes were collected and analyzed separately. The total urine was determined as the amount from the urine plus washes 1 and 2. Feces were homogenized in PBS, then extracted using the same procedure used for tissues.
Six hundred microliters of acetonitrile was added to 200 μL of plasma, urine, cage washes (first and second), or tissue/feces homogenate in an Eppendorf tube to precipitate proteins. After centrifugation at 14,000 rpm for 10 min, the supernatant was transferred to a glass tube and evaporated to dryness using a TurboVap® LV Concentration Workstation (Caliper Lifesciences, Hopkinton, MA). The residue was reconstituted with 500 μL ethyl acetate, sonicated for 10 min, and vortexed for 10 sec. Samples were then centrifuged again and the resulting supernatant was transferred to a new glass tube and evaporated to dryness. Finally, samples were reconstituted in 100 μL mobile phase, and 50 μL was injected into the HPLC system for analysis.
The averages of the BA-TPQ concentration in plasma and tissues following intravenous and intraperitoneal administration to three animals per time point were used for pharmacokinetic analyses using a two-compartmental model and a non-compartment model, respectively. The following pharmacokinetic parameters were estimated using Phoenix WinNonlin 6.0 (Mountain View, CA): area under the concentration-time curve (AUC, h·μg/mL), half-life (T½, h), maximum concentration (Cmax, μg/mL), time of the maximum concentration (Tmax, h), and clearance (CL, mL/h/kg), as applicable. Bioavailability (X) was calculated as X= [AUCip × doseiv]/[AUCiv × doseip].

[4] = tested on: breast and prostate xenograft tumors; details: cited from earlier work
[5] = female, ICR/CD-1, mouse, liver, IV 5 mg/kg
[6] = female, ICR/CD-1, mouse, lungs, IP 10 mg/kg
[7] = female, ICR/CD-1, mouse, lungs, IV 5 mg/kg
[8] = female, mouse, brain, IP 10 mg/kg
[9] = female, mouse, brain, IV 5 mg/kg
[10] = female, mouse, heart, IP 10 mg/kg
[11] = female, mouse, heart, IV 5 mg/kg
[12] = female, mouse, kidneys, IP 10 mg/kg
[13] = female, mouse, kidneys, IV 5 mg/kg
[14] = female, mouse, liver, IP 10 mg/kg
[15] = female, mouse, lungs, IV 5 mg/kg
[16] = female, mouse, plasma, IP 10 mg/kg
[17] = female, mouse, plasma, IV 5 mg/kg
[18] = female, mouse, spleen, IP 10 mg/kg
[19] = female, mouse, spleen, IV 5 mg/kg

O=C1C(NCc2ccccc2)=CC2=NCCc3c[nH]c1c32 [BA-TPQ, 7-(benzylamino)-1,3,4,8-tetrahydropyrrolo[4,3,2-de]quinolin-8(1H)-one]
In vitro growth of prostate and breast cancer cell lines [1]: inhibit in vitro growth | Stability in mouse plasma (in words) ([2]; 37 °C, 4 °C and −80 °C, 0.5 μM and 5.0 μM): very stable | Amount Remaining ([2]; 4 °C, 24 hr, 0.5 μM): 94% | Amount Remaining ([2]; 4 °C, 24 hr, 5.0 μM): 117% | Amount Remaining ([2]; 37 °C, 8 hr, 0.5 μM): 92% | Amount Remaining ([2]; 37 °C, 8 hr, 5.0 μM): 114% | Amount Remaining ([2]; −80 °C, 4 weeks, 0.5 μM): 95% | Amount Remaining ([2]; −80 °C, 4 weeks, 5.0 μM): 100% | Time of greatest plasma concentration ([3]; IP 10 mg/kg): 15 min | Cl ([3]; brain, IP 10 mg/kg): 2920 mL/min/kg | AUC [3, 5]: 650 ng·h/mL | Cmax [3, 5]: 690 ng/mL | clearance [3, 5]: 900 mL/min/kg | half-life [3, 5]: 39 min | AUC [3, 6]: 9150 ng·h/mL | Cmax [3, 6]: 12400 ng/mL | Tmax [3, 6]: 4.8 min | half-life [3, 6]: 30 min | AUC [3, 7]: 4980 ng·h/mL | clearance [3, 7]: 117 mL/min/kg | AUC [3, 8]: 190 ng·h/mL | Cmax [3, 8]: 180 ng/mL | Tmax [3, 8]: 15 min | half-life [3, 8]: 49.8 min | AUC [3, 9]: 220 ng·h/mL | Cmax [3, 9]: 750 ng/mL | clearance [3, 9]: 2630 mL/min/kg | half-life [3, 9]: 12.6 min | AUC [3, 10]: 4660 ng·h/mL | Cmax [3, 10]: 7240 ng/mL | Tmax [3, 10]: 4.8 min | half-life [3, 10]: 42.6 min | AUC [3, 11]: 1020 ng·h/mL | Cmax [3, 11]: 5340 ng/mL | clearance [3, 11]: 567 mL/min/kg | half-life [3, 11]: 7.8 min | AUC [3, 12]: 8060 ng·h/mL | Cmax [3, 12]: 8360 ng/mL | Tmax [3, 12]: 15 min | half-life [3, 12]: 28.8 min | AUC [3, 13]: 2830 ng·h/mL | Cmax [3, 13]: 9680 ng/mL | clearance [3, 13]: 200 mL/min/kg | half-life [3, 13]: 12 min | AUC [3, 14]: 150 ng·h/mL | Cmax [3, 14]: 470 ng/mL | Tmax [3, 14]: 4.8 min | half-life [3, 14]: 14.4 min | Cmax [3, 15]: 13000 ng/mL | half-life [3, 15]: 15.6 min | AUC [3, 16]: 110 ng·h/mL | Cmax [3, 16]: 110 ng/mL | Tmax [3, 16]: 4.8 min | half-life [3, 16]: 51.6 min | bioavailability ([3]; female, mouse, plasma, IP 10 mg/kg vs IV 5 mg/kg, read-out: Intraperitoneal bioavailability): 74% | AUC [3, 17]: 70 ng·h/mL | Cmax [3, 17]: 360 ng/mL | clearance [3, 17]: 8200 mL/min/kg | half-life [3, 17]: 8.4 min | AUC [3, 18]: 11300 ng·h/mL | Cmax [3, 18]: 23000 ng/mL | Tmax [3, 18]: 4.8 min | half-life [3, 18]: 24.6 min | AUC [3, 19]: 1800 ng·h/mL | Cmax [3, 19]: 4590 ng/mL | clearance [3, 19]: 317 mL/min/kg | half-life [3, 19]: 16.2 min | Cl ([3]; heart, IP 10 mg/kg): 130 mL/min/kg | Cl ([3]; kidneys, IP 10 mg/kg): 67 mL/min/kg | Cl ([3]; liver, IP 10 mg/kg): 4100 mL/min/kg | Cl ([3]; lungs, IP 10 mg/kg): 67 mL/min/kg | Cl ([3]; plasma, IP 10 mg/kg): 5750 mL/min/kg | Concentration in the plasma for the first 30 minutes ([3]; single bolus IV 5 mg/kg): up to 0.18 μg/mL | Cl ([3]; spleen, IP 10 mg/kg): 50 mL/min/kg | Death in mice on repeated dosing ([4]; 10 mg/kg, three times per week for up to six weeks): does not cause death | Toxicity in mice (weight loss) ([4]; especially at 10 mg/kg, 3 days/week for several weeks): systemic toxicity | Tumor growth in mouse xenograft models ([4]; prostate and breast cancer xenografts): inhibit tumor growth
